Data: paper PMC5478271, “Chemical structure-guided design of dynapyrazoles, cell-permeable dynein inhibitors with a unique mode of action” (eLife, 2017)

Target: T1, human cytoplasmic dynein 2 (GFP-dynein 2, amino acids 1091–4307) (Homo sapiens, UniProt Q8NCM8)
T1 construct: (AA 1091–4307, uniprot: Q8NCM8); protein A tag (followed by TEV-cleavable linker) (N, cleaved yes); made in house; host or cells: Sf9 insect cells (baculovirus)
Test: Microtubule gliding (motility) assay with GFP-dynein 2
Assay type: biochemical
Details: 0.05 mg/mL casein; for Velocity of dynein-2-driven microtubule gliding: 20 µM compound, solvent control 128 ± 14 nm/s, mean ± S.D.; for Velocity of dynein-2-driven microtubule gliding / IC50: 1 mM MgATP, 2% DMSO; for IC50: read-out: IC50, inhibition of GFP-dynein-2-driven motility
Description: We purified an N-terminally GFP-tagged motor-domain construct of dynein 2 using an insect cell expression system ([Schmidt et al., 2015]). The GFP tag in this construct (GFP-dynein 2, amino acids 1091–4307) allowed the motor protein to be immobilized on passivated glass coverslips used in microtubule gliding assays. GFP-dynein 2 was obtained as a mono-disperse peak by gel filtration (Figure 2D and E). In the presence of ATP (1 mM), this protein moved microtubules with a velocity of 128 ± 14 nm/s (mean ± SD, Figure 2G and I).
Reaction setup: A coverslip-based motility assay was adapted from similar assays reported previously ([Firestone et al., 2012]; [Schmidt et al., 2015]). A flow chamber assembled on a pre-cleaned microscope coverslide (3–5 µL chamber volume) was hydrated with buffer A (25 mM PIPES, 30 mM KCl, 5 mM MgCl2, 1 mM EGTA, 0.01% Triton X-100, 1 mM DTT, 20 µM taxol, pH 7.0 with KOH). Anti-GFP antibody (0.4 mg/mL, affinity purified rabbit antibody) was flowed into the chamber and allowed to adhere non-specifically to the glass for 20 s. The surface was blocked using 0.5 mg/mL α-casein in buffer A. Excess protein was then washed away with buffer A. GFP-dynein motor domain was diluted in buffer A supplemented with 1 mM DTT and 0.1 mM ATP (2 mM DTT final; GFP-dynein 2 diluted to: 180 nM; GFP-dynein 1 diluted to: 60 nM), flowed into the chamber and allowed to bind for 20 s. Excess protein was washed away with buffer A. Reaction mix (25 mM PIPES, 90 mM KCl, 6 mM MgCl2, 1 mM EGTA, 0.01% Triton X-100, 3 mM DTT, 20 µM taxol, 1 mM ATP, 1x oxygen scavenging system components [4.5 mg/mL glucose, 35 µg/mL catalase, 200 µg/mL glucose oxidase], 2% final DMSO [v/v] with compounds at appropriate concentrations, 0.05 mg/mL α-casein, microtubules [rhodamine labeled, purified from bovine brain, GMP-CPP and Taxol-stabilized], pH 7.0 with KOH) was flowed into the chamber using ~4 chamber volumes. For experiments shown in Figure 4—figure supplement 1, α-casein concentration in reaction mix was 0.5 mg/mL and all other parameters were held constant.
For reversibility experiments, motility in the presence of 5 µM 8 was observed as above, and upon completion of imaging, the chamber, fresh buffer A supplemented with 1 mM ATP was flowed into the chamber and incubated for 1 min; this wash and incubation cycle was repeated twice. Reaction mix containing DMSO (no compound) was flowed into the chamber using ~4 chamber volumes. The chamber was sealed with valap and returned to the microscope.
Microscopy conditions: Following addition of reaction mix, microtubules were allowed to bind for 5 min before imaging. For reversibility experiments, microtubules were allowed to bind for 10 min before imaging. Videos were taken on a Zeiss Axiovert 200M wide-field microscope equipped with a Zeiss 100x/1.45 NA α-Plan-Fluar objective. Data were captured with an EM-CCD camera (iXon DU-897, Andor Technology) with a 0.2 s exposure time and frame rate of 0.25–0.5/second. Four 10–20 s videos were captured per experimental condition. Velocities were measured using the kymograph tool in FIJI ([Schindelin et al., 2012]). Data analysis is discussed below under ‘General data analysis procedures.’
Microtubule velocity measurements: the tracks of microtubules were traced and converted to kymographs (x axis-displacement, y axis-time) using the kymograph function of FIJI (RRID: SCR_002285). The angle formed between an edge of a microtubule and the horizontal was measured. This angle, θ, was converted into velocity using the following relationship: velocity = 1/|tangent(θ)| * (unit pixel distance)/(time interval between frames).
The calibrated pixel distance was 0.152 µm and the time interval between frames was either 2 or 4 s. The velocities of at least seven microtubules were measured per field of view, if sufficient tracks could be found. In cases where fewer than seven microtubules were found in a field of view, velocities of all microtubules on the coverslip were measured. […]

T1 sequence (Q8NCM8 1091-4307): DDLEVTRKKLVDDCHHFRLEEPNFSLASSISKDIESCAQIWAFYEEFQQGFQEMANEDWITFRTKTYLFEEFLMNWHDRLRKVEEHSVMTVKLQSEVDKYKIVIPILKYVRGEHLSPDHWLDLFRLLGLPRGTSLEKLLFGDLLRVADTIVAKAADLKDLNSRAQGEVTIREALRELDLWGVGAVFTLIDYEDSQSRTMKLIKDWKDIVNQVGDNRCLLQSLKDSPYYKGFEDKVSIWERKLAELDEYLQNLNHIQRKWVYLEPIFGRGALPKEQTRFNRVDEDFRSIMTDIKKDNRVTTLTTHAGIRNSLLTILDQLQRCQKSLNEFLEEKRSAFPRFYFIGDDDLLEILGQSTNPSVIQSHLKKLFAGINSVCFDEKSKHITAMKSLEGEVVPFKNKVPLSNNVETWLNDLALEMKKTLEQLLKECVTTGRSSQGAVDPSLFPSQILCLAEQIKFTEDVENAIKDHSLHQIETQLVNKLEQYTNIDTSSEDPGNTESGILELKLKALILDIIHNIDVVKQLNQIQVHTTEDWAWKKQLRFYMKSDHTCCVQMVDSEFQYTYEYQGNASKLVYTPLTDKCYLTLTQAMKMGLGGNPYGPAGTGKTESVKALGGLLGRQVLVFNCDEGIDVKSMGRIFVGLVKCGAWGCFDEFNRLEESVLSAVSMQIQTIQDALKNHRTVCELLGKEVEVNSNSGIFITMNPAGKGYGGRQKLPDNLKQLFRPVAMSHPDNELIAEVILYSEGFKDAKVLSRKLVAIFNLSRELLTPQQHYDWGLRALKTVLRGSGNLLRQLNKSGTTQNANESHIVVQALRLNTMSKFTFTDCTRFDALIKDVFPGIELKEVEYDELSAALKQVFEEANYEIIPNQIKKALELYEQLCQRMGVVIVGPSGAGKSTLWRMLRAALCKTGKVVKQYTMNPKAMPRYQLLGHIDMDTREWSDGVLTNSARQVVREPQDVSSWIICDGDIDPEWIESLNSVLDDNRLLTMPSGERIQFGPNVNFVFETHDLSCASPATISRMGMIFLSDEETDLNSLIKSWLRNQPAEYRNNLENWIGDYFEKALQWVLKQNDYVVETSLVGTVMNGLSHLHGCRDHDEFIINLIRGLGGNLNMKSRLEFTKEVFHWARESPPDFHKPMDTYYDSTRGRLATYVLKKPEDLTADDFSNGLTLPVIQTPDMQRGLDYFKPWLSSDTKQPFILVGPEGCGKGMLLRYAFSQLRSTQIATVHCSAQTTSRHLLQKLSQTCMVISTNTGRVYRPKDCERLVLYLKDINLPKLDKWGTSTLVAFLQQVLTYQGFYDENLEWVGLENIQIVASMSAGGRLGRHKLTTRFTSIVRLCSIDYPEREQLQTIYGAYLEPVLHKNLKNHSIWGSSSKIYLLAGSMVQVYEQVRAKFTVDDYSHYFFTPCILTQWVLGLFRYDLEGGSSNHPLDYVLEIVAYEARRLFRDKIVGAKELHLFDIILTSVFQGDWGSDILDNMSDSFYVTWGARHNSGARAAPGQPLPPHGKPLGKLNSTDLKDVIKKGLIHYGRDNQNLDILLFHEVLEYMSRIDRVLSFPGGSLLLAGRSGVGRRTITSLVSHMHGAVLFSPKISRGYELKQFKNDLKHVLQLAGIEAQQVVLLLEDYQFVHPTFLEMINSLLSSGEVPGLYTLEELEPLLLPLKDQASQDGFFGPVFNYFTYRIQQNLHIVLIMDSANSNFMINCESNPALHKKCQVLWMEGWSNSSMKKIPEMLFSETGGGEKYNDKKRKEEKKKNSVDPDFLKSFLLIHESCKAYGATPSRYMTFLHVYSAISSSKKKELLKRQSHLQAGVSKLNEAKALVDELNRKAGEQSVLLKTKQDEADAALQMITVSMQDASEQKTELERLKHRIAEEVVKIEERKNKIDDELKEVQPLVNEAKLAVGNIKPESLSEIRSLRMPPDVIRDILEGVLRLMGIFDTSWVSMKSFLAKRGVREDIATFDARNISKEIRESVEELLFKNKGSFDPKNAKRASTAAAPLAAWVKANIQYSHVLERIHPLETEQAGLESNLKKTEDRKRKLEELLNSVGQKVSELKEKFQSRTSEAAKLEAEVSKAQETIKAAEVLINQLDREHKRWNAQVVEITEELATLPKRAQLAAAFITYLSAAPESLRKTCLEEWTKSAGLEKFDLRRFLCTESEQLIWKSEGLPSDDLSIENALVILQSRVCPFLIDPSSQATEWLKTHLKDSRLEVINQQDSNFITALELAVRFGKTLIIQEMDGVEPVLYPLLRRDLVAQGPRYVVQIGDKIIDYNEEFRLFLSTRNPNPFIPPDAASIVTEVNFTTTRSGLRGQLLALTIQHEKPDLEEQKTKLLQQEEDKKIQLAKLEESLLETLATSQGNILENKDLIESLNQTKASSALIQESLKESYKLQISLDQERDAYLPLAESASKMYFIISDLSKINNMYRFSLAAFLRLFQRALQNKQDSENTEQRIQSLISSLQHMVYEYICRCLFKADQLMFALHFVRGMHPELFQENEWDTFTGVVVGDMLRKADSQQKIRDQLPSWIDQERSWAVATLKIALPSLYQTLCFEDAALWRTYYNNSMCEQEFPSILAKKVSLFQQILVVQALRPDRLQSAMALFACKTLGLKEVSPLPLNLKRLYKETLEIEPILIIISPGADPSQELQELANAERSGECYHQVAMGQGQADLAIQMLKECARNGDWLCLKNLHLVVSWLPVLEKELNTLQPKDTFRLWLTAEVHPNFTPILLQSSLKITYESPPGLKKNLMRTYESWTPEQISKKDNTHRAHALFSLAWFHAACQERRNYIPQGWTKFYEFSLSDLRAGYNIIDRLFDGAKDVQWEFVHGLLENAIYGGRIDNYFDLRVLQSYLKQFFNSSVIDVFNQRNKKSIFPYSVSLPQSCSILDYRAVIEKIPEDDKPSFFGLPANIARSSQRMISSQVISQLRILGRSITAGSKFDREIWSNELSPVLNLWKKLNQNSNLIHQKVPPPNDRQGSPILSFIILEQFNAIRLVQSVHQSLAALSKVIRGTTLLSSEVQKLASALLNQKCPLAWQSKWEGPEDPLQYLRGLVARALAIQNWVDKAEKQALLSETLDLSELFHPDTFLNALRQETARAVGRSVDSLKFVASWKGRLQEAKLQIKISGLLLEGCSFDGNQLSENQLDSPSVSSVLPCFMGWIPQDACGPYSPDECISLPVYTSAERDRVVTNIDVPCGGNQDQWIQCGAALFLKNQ

SMILES	Reversibility of inhibition of dynein-2-dependent motility after washout (5 µM 8, then washout, 1 mM ATP)	Velocity of dynein-2-driven microtubule gliding [nm/s]	IC50 [µM]
N#Cc1c(C2(c3ccc(Cl)cc3)CC2)nn2c1[nH]c(=O)c1cc(I)ccc12 [Compound 8, 2-[1-(4-chlorophenyl)cyclopropyl]-7-iodo-5-oxo-4H-pyrazolo[1,5-a]quinazoline-3-carbonitrile]	reversed following washout	6 ± 2	2.6 ± 1.3
N#C/C(C(=O)c1ccc(Cl)cc1Cl)=C1\NC(=O)c2ccc(Cl)cc2N1 [ciliobrevin D, reference compound]		83 ± 10	20
